Values joined by “and” are separate entries in the source; they are usually repeats but may differ in a detail not shown here. Equal entries are not always repeated.
Legend:
Type in all cases: in vivo
[1] = Serum drug levels after repeated doses of Toltrazuril in horses; parameters: unit not given here; details: for Toltrazuril Level (Table 5b) / Toltrazuril Level (Table 5a): per horse; for AVG Toltrazuril Level (Table 5b) / AVG Toltrazuril Level (Table 5a): average
Method: (§1) This experiment was conducted in order to determine whether triazineones such as Toltrazuril can pass the blood-brain barrier. Normal horses were divided into three groups of three horses per group. Group 1 horses received Toltrazuril administered orally as a 5% suspension at a dose level of 2.5 mg/Kg. Group 2 horses received Toltrazuril administered orally as a 5% suspension at a dose level of 5.0 mg/Kg. Group 3 horses received Toltrazuril administered orally as a 5% suspension at a dose level of 7.5 mg/Kg. The dosing was repeated daily for 10 days. Blood samples were drawn at 48, 96 and 240 hours and the concentration of Toltrazuril, Toltrazuril sulfoxide and Ponazuril in the serum was measured. Ten days after the start of the treatment (Day 10), a sample of cerebral spinal fluid was removed from each horse and the concentrations of Toltrazuril, Toltrazuril Sulfoxide and Ponazuril were again measured in these samples. The concentrations of Toltrazuril, Toltrazuril Sulfoxide and Ponazuril in the serum and cerebral spinal fluid are reported in TABLES 5a and 5b.

[2] = Cerebral spinal fluid drug levels / passage of blood-brain barrier after repeated doses of Toltrazuril in horses; details: for AVG Cerebral Spinal Fluid level (Table 5b) / AVG Cerebral Spinal Fluid level (Table 5a): CSF, average, Day 10
Method: as §1

[3] = Pharmacokinetics of a single oral dose of Toltrazuril in horses (blood levels); details: horses receiving single oral 10 mg/kg Toltrazuril
Method: A pharmacokinetic study was conducted in horses comparing blood levels of Toltrazuril, Ponazuril and Toltrazuril Sulfoxide at various times post a single dose of Toltrazuril. All horses received a single dose of 10 mg/kg, which was administered orally as a suspension. Blood samples were drawn at the time of treatment (0) and at 0.25, 0.5, 1, 2, 4, 6, 12, 24, 48 and 72 hours post treatment. […] This was an indication that Ponazuril, alone, would produce acceptable blood levels that are envisioned to pass the blood-brain barrier, a characteristic required to treat neurological diseases such as those caused by Sarcocystis neurona, Toxoplasma gondii, Neospora caninum and Neospora heugesi.

Cc1cc(-n2c(=O)[nH]c(=O)n(C)c2=O)ccc1Oc1ccc(SC(F)(F)F)cc1 [Toltrazuril]
Toltrazuril Level (Table 5b) ([1]; 2.5 mg/Kg oral Toltrazuril daily for 10 days, 240 Hrs, 2.5 mg/kg): 2.61 and 2.36 and 4.04 | Toltrazuril Level (Table 5a) ([1]; 2.5 mg/Kg oral daily for 10 days, 96 Hrs, 2.5 mg/kg): 9.85 and 9.09 and 13.1 | Toltrazuril Level (Table 5a) ([1]; 2.5 mg/Kg oral daily for 10 days, 240 Hrs, 2.5 mg/kg): 15.29 and 9.60 and 15.21 | Toltrazuril Level (Table 5b) ([1]; 5.0 mg/Kg oral Toltrazuril daily for 10 days, 48 Hrs, 5 mg/kg): 0.48 and 0.63 | Toltrazuril Level (Table 5b) ([1]; 5.0 mg/Kg oral Toltrazuril daily for 10 days, 96 Hrs, 5 mg/kg): 2.09 and 2.03 and 2.66 | Toltrazuril Level (Table 5a) ([1]; 5.0 mg/Kg oral daily for 10 days, 48 Hrs, 5 mg/kg): 7.28 and 9.18 and 9.26 | Toltrazuril Level (Table 5a) ([1]; 5.0 mg/Kg oral daily for 10 days, 96 Hrs, 5 mg/kg): 14.17 and 14.03 and 18.19 | Toltrazuril Level (Table 5a) ([1]; 5.0 mg/Kg oral daily for 10 days, 240 Hrs, 5 mg/kg): 24.92 and 16.54 and 17.59 | Toltrazuril Level (Table 5b) ([1]; 7.5 mg/Kg oral Toltrazuril daily for 10 days, 96 Hrs, 7.5 mg/kg): 2.69 and 2.89 and 3.09 | Toltrazuril Level (Table 5b) ([1]; 7.5 mg/Kg oral Toltrazuril daily for 10 days, 240 Hrs, 7.5 mg/kg): 6.31 and 6.37 and 7.06 | Toltrazuril Level (Table 5a) ([1]; 7.5 mg/Kg oral daily for 10 days, 48 Hrs, 7.5 mg/kg): 9.90 and 10.46 | Toltrazuril Level (Table 5a) ([1]; 7.5 mg/Kg oral daily for 10 days, 96 Hrs, 7.5 mg/kg): 27.74 and 19.55 and 18.47 | Toltrazuril Level (Table 5a) ([1]; 7.5 mg/Kg oral daily for 10 days, 240 Hrs, 7.5 mg/kg): 30.08 and 24.15 and 23.53 | AVG Toltrazuril Level (Table 5b) ([1]; 2.5 mg/Kg oral Toltrazuril daily for 10 days, 48 Hrs): 1.41 | AVG Toltrazuril Level (Table 5b) ([1]; 2.5 mg/Kg oral Toltrazuril daily for 10 days, 96 Hrs): 1.76 | AVG Toltrazuril Level (Table 5b) ([1]; 2.5 mg/Kg oral Toltrazuril daily for 10 days, 240 Hrs): 3.00 | AVG Toltrazuril Level (Table 5a) ([1]; 2.5 mg/Kg oral daily for 10 days, 48 Hrs): 6.70 | AVG Toltrazuril Level (Table 5a) ([1]; 2.5 mg/Kg oral daily for 10 days, 96 Hrs): 10.68 | AVG Toltrazuril Level (Table 5a) ([1]; 2.5 mg/Kg oral daily for 10 days, 240 Hrs): 13.37 | AVG Toltrazuril Level (Table 5b) ([1]; 5.0 mg/Kg oral Toltrazuril daily for 10 days, 48 Hrs): 0.53 | AVG Toltrazuril Level (Table 5b) ([1]; 5.0 mg/Kg oral Toltrazuril daily for 10 days, 96 Hrs): 2.26 | AVG Toltrazuril Level (Table 5b) ([1]; 5.0 mg/Kg oral Toltrazuril daily for 10 days, 240 Hrs): 5.02 | AVG Toltrazuril Level (Table 5a) ([1]; 5.0 mg/Kg oral daily for 10 days, 48 Hrs): 8.57 | AVG Toltrazuril Level (Table 5a) ([1]; 5.0 mg/Kg oral daily for 10 days, 96 Hrs): 15.46 | AVG Toltrazuril Level (Table 5a) ([1]; 5.0 mg/Kg oral daily for 10 days, 240 Hrs): 19.68 | AVG Toltrazuril Level (Table 5b) ([1]; 7.5 mg/Kg oral Toltrazuril daily for 10 days, 48 Hrs): 2.55 | AVG Toltrazuril Level (Table 5b) ([1]; 7.5 mg/Kg oral Toltrazuril daily for 10 days, 96 Hrs): 2.89 | AVG Toltrazuril Level (Table 5b) ([1]; 7.5 mg/Kg oral Toltrazuril daily for 10 days, 240 Hrs): 6.58 | AVG Toltrazuril Level (Table 5a) ([1]; 7.5 mg/Kg oral daily for 10 days, 48 Hrs): 10.18 | AVG Toltrazuril Level (Table 5a) ([1]; 7.5 mg/Kg oral daily for 10 days, 96 Hrs): 21.92 | AVG Toltrazuril Level (Table 5a) ([1]; 7.5 mg/Kg oral daily for 10 days, 240 Hrs): 25.95 | AVG Cerebral Spinal Fluid level (Table 5b) ([2]; 2.5 mg/Kg oral Toltrazuril daily for 10 days): 0.09 | AVG Cerebral Spinal Fluid level (Table 5a) ([2]; 2.5 mg/Kg oral daily for 10 days): 0.15 | AVG Cerebral Spinal Fluid level (Table 5b) ([2]; 5.0 mg/Kg oral Toltrazuril daily for 10 days): 0.16 | AVG Cerebral Spinal Fluid level (Table 5a) ([2]; 5.0 mg/Kg oral daily for 10 days): 0.19 | AVG Cerebral Spinal Fluid level (Table 5b) ([2]; 7.5 mg/Kg oral Toltrazuril daily for 10 days): 0.22 | AVG Cerebral Spinal Fluid level (Table 5a) ([2]; 7.5 mg/Kg oral daily for 10 days): 0.39 | Crossing of the blood-brain barrier ([2]; horses, after oral Toltrazuril daily for 10 days): effectively cross the blood-brain barrier

Cc1cc(-n2c(=O)[nH]c(=O)n(C)c2=O)ccc1Oc1ccc([S+]([O-])C(F)(F)F)cc1 (stereo not drawn) [Toltrazuril Sulfoxide]
Levels in serum / bloodstream (in words) [3]: significant levels

Source: patent US6194408A, “Triazineone compounds for treating diseases due to Sarcocystis, Neospora and Toxoplasma” (Bayer Corporation, priority 1998, dated 2001)
